Species: Rattus norvegicus
Test: Open TG-GATES - Regimen: Single
Assay type: toxicity, organism-based, Sprague-Dawley
Design: regimen Single, gender Male, age 6 weeks
Conditions: in vivo, po, 0 mg/kg, route gavage, dose level Control; for APTT / Bas / Eos / Fbg / Hb / Ht / Lym / MCH / MCHC / MCV / Mono / Neu / PT / Plat / RBC / Ret / WBC: tissue Blood; for KIDNEY_L / KIDNEY_R / KIDNEY_TOTAL: tissue Kidney; for LIVER: tissue Liver; for A/G / ALP / ALT / AST / BUN / CRE / Ca / Cl / DBIL / GLC / IP / K / LDH / Na / PL / RALB / TBIL / TC / TG / TP / gamma-GTP: tissue Plasma

Compound: CCOc1ccc(NC(=O)CC(C)O)cc1 (configuration not stated) [BUCETIN]
- TERMINAL_BW (3 h): 208.8 g
- APTT (3 h): 14.7 s
- Bas (3 h): 0%
- Eos (3 h): 1%
- Fbg (3 h): 294.8 mg/dL
- Hb (3 h): 12.7 g/dL
- Ht (3 h): 38.3%
- Lym (3 h): 78.2%
- MCH (3 h): 21.4 pg
- MCHC (3 h): 33.2%
- MCV (3 h): 64.5 fL
- Mono (3 h): 3.2%
- Neu (3 h): 17.2%
- PT (3 h): 13.6 s
- Plat (3 h): 115.4 x10_4/uL
- RBC (3 h): 594.2 x10_4/ul
- Ret (3 h): 8.7%
- WBC (3 h): 84.1 x10_2/uL
- KIDNEY_L (3 h): 0.9 g
- KIDNEY_R (3 h): 0.9 g
- KIDNEY_TOTAL (3 h): 1.8 g
- LIVER (3 h): 9.1 g
- A/G (3 h): 0.9
- ALP (3 h): 1389.8 IU/L
- ALT (3 h): 35.8 IU/L
- AST (3 h): 75 IU/L
- BUN (3 h): 9.8 mg/dL
- CRE (3 h): 0.2 mg/dL
- Ca (3 h): 10.6 mg/dL
- Cl (3 h): 105.2 meq/L
- DBIL (3 h): 0.02 mg/dL
- GLC (3 h): 178 mg/dL
- IP (3 h): 8.6 mg/dL
- K (3 h): 4.3 meq/L
- LDH (3 h): 77.2 IU/L
- Na (3 h): 141.8 meq/L
- PL (3 h): 143.4 mg/dL
- RALB (3 h): 2.5 g/dL
- TBIL (3 h): 0.06 mg/dL
- TC (3 h): 81.6 mg/dL
- TG (3 h): 50.4 mg/dL
- TP (3 h): 5.4 g/dL
- gamma-GTP (3 h): 2 IU/L
- TERMINAL_BW (6 h): 211.1 g
- APTT (6 h): 16.7 s
- Bas (6 h): 0.2%
- Eos (6 h): 1%
- Fbg (6 h): 303.8 mg/dL
- Hb (6 h): 13.3 g/dL
- Ht (6 h): 40%
- Lym (6 h): 83.6%
- MCH (6 h): 21.4 pg
- MCHC (6 h): 33.3%
- MCV (6 h): 64.4 fL
- Mono (6 h): 1.8%
- Neu (6 h): 13%
- PT (6 h): 13.4 s
- Plat (6 h): 117.3 x10_4/uL
- RBC (6 h): 619.6 x10_4/ul
- Ret (6 h): 8.6%
- WBC (6 h): 97.2 x10_2/uL
- KIDNEY_L (6 h): 0.9 g
- KIDNEY_R (6 h): 0.9 g
- KIDNEY_TOTAL (6 h): 1.9 g
- LIVER (6 h): 8.9 g
- A/G (6 h): 0.9
- ALP (6 h): 1305.2 IU/L
- ALT (6 h): 32.4 IU/L
- AST (6 h): 66.4 IU/L
- BUN (6 h): 8.8 mg/dL
- CRE (6 h): 0.2 mg/dL
- Ca (6 h): 10.8 mg/dL
- Cl (6 h): 105.6 meq/L
- DBIL (6 h): 0.016 mg/dL
- GLC (6 h): 178.2 mg/dL
- IP (6 h): 9.2 mg/dL
- K (6 h): 4.3 meq/L
- LDH (6 h): 70.4 IU/L
- Na (6 h): 142.8 meq/L
- PL (6 h): 143.2 mg/dL
- RALB (6 h): 2.5 g/dL
- TBIL (6 h): 0.058 mg/dL
- TC (6 h): 77.6 mg/dL
- TG (6 h): 62.8 mg/dL
- TP (6 h): 5.4 g/dL
- gamma-GTP (6 h): 1.4 IU/L
- TERMINAL_BW (9 h): 208.6 g
- APTT (9 h): 17.3 s
- Bas (9 h): 0%
- Eos (9 h): 1%
- Fbg (9 h): 299.8 mg/dL
- Hb (9 h): 13 g/dL
- Ht (9 h): 39.1%
- Lym (9 h): 79.8%
- MCH (9 h): 21.3 pg
- MCHC (9 h): 33.2%
- MCV (9 h): 64.3 fL
- Mono (9 h): 2.6%
- Neu (9 h): 16.6%
- PT (9 h): 14.3 s
- Plat (9 h): 114.6 x10_4/uL
- RBC (9 h): 608.6 x10_4/ul
- Ret (9 h): 8.1%
- WBC (9 h): 87.3 x10_2/uL
- KIDNEY_L (9 h): 0.9 g
- KIDNEY_R (9 h): 0.9 g
- KIDNEY_TOTAL (9 h): 1.8 g
- LIVER (9 h): 8.3 g
- A/G (9 h): 0.9
- ALP (9 h): 1557.4 IU/L
- ALT (9 h): 32.8 IU/L
- AST (9 h): 68.6 IU/L
- BUN (9 h): 9.4 mg/dL
- CRE (9 h): 0.2 mg/dL
- Ca (9 h): 10.5 mg/dL
- Cl (9 h): 106 meq/L
- DBIL (9 h): 0.018 mg/dL
- GLC (9 h): 178.6 mg/dL
- IP (9 h): 9.8 mg/dL
- K (9 h): 4 meq/L
- LDH (9 h): 70.2 IU/L
- Na (9 h): 142.2 meq/L
- PL (9 h): 135 mg/dL
- RALB (9 h): 2.6 g/dL
- TBIL (9 h): 0.06 mg/dL
- TC (9 h): 73.8 mg/dL
- TG (9 h): 57.2 mg/dL
- TP (9 h): 5.4 g/dL
- gamma-GTP (9 h): 1.4 IU/L
- TERMINAL_BW (24 h): 224 g
- APTT (24 h): 18.6 s
- Bas (24 h): 0.2%
- Eos (24 h): 0.8%
- Fbg (24 h): 290.6 mg/dL
- Hb (24 h): 13.4 g/dL
- Ht (24 h): 40.5%
- Lym (24 h): 79%
- MCH (24 h): 21.3 pg
- MCHC (24 h): 33%
- MCV (24 h): 64.4 fL
- Mono (24 h): 2.6%
- Neu (24 h): 16.6%
- PT (24 h): 14.3 s
- Plat (24 h): 121.1 x10_4/uL
- RBC (24 h): 628.8 x10_4/ul
- Ret (24 h): 7.6%
- WBC (24 h): 102.9 x10_2/uL
- KIDNEY_L (24 h): 1 g
- KIDNEY_R (24 h): 1 g
- KIDNEY_TOTAL (24 h): 2 g
- LIVER (24 h): 10.4 g
- A/G (24 h): 0.9
- ALP (24 h): 1587.4 IU/L
- ALT (24 h): 40.4 IU/L
- AST (24 h): 72.2 IU/L
- BUN (24 h): 14.6 mg/dL
- CRE (24 h): 0.2 mg/dL
- Ca (24 h): 11.1 mg/dL
- Cl (24 h): 105.2 meq/L
- DBIL (24 h): 0.022 mg/dL
- GLC (24 h): 180.8 mg/dL
- IP (24 h): 7.9 mg/dL
- K (24 h): 4.1 meq/L
- LDH (24 h): 74.6 IU/L
- Na (24 h): 143.6 meq/L
- PL (24 h): 148.2 mg/dL
- RALB (24 h): 2.6 g/dL
- TBIL (24 h): 0.05 mg/dL
- TC (24 h): 76.2 mg/dL
- TG (24 h): 104.2 mg/dL
- TP (24 h): 5.6 g/dL
- gamma-GTP (24 h): 1.2 IU/L

Source: ChEMBL document CHEMBL3885861, “Open TG-GATES”
